Measurements reported in the supplement of paper PMC8671470.

Each compound was assayed on LAMA-84 (assay: cell viability (% survival relative to DMSO control, bortezomib = 0%); higher = less cytotoxic). Details: 1 nM; 72 h.
Procedure, shortened: (§1)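 In 384-well plates pre-printed with compounds at 1, 10, 100, 1000 or 10000 nM, duplicate wells received cells from 10 AML and 5 CML lines at densities within the linear growth range. The plates stayed at 37 °C with 5% CO2 for 72 h before CellTiter-Glo luminescence was recorded. Each entry is averaged percent survival. Scaling placed vehicle at 100% and a 10 µM positive control at 0%.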

SMILES	cell viability
CCCCN1C[C@H](O)[C@@H](O)[C@H](O)[C@H]1CO [Miglustat]	94.3%
C=C(C=NNC(=N)N)NNC(=N)N [Mitoguazone]	99.9%
CCCCC/C=C\C/C=C\C/C=C\C/C=C\CCCCN1C(=O)C=CC1=O [N-Arachidonylmaleimide]	96.8%
CCCCCCCCCCC[C@@H](C[C@@H]1OC(=O)[C@H]1CCCCCC)OC(=O)[C@H](CC(C)C)NC=O [Orlistat]	101%
COc1ccc(C(=O)Nc2c(Cl)cncc2Cl)cc1OC1CCCC1 [Piclamilast]	87.5%
COc1cc(/C=C/C(=O)N2CCC=CC2=O)cc(OC)c1OC [Piperlongumine]	104%
O=C(NNc1ccccc1)c1ccncc1 [PluriSln 1]	88.4%
CC(C)c1nc(CN(C)C(=O)N[C@H](C(=O)N[C@@H](Cc2ccccc2)C[C@H](O)[C@H](Cc2ccccc2)NC(=O)OCc2cncs2)C(C)C)cs1 [Ritonavir]	115%
C=C(C)[C@H]1Cc2c(ccc3c2O[C@@H]2COc4cc(OC)c(OC)cc4[C@@H]2C3=O)O1 [Rotenone]	101%
Oc1ccc(Nc2nc(-c3ccc(Cl)cc3)cs2)cc1 [SKI II]	105%
O=C(O)c1cc(N=Nc2ccc(S(=O)(=O)Nc3ccccn3)cc2)ccc1O [Sulfasalazine]	105%

Same assay, conditions: 10 nM; 72 h

SMILES	cell viability
CCCCN1C[C@H](O)[C@@H](O)[C@H](O)[C@H]1CO [Miglustat]	97.8%
C=C(C=NNC(=N)N)NNC(=N)N [Mitoguazone]	104%
CCCCC/C=C\C/C=C\C/C=C\C/C=C\CCCCN1C(=O)C=CC1=O [N-Arachidonylmaleimide]	99.9%
CCCCCCCCCCC[C@@H](C[C@@H]1OC(=O)[C@H]1CCCCCC)OC(=O)[C@H](CC(C)C)NC=O [Orlistat]	103%
COc1ccc(C(=O)Nc2c(Cl)cncc2Cl)cc1OC1CCCC1 [Piclamilast]	114%
COc1cc(/C=C/C(=O)N2CCC=CC2=O)cc(OC)c1OC [Piperlongumine]	106%
O=C(NNc1ccccc1)c1ccncc1 [PluriSln 1]	99.4%
CC(C)c1nc(CN(C)C(=O)N[C@H](C(=O)N[C@@H](Cc2ccccc2)C[C@H](O)[C@H](Cc2ccccc2)NC(=O)OCc2cncs2)C(C)C)cs1 [Ritonavir]	103%
C=C(C)[C@H]1Cc2c(ccc3c2O[C@@H]2COc4cc(OC)c(OC)cc4[C@@H]2C3=O)O1 [Rotenone]	87.5%
Oc1ccc(Nc2nc(-c3ccc(Cl)cc3)cs2)cc1 [SKI II]	99.9%
O=C(O)c1cc(N=Nc2ccc(S(=O)(=O)Nc3ccccn3)cc2)ccc1O [Sulfasalazine]	97.1%

Same assay, conditions: 100 nM; 72 h

SMILES	cell viability
CCCCN1C[C@H](O)[C@@H](O)[C@H](O)[C@H]1CO [Miglustat]	96.4%
C=C(C=NNC(=N)N)NNC(=N)N [Mitoguazone]	100%
CCCCC/C=C\C/C=C\C/C=C\C/C=C\CCCCN1C(=O)C=CC1=O [N-Arachidonylmaleimide]	98.4%
CCCCCCCCCCC[C@@H](C[C@@H]1OC(=O)[C@H]1CCCCCC)OC(=O)[C@H](CC(C)C)NC=O [Orlistat]	93.9%
COc1ccc(C(=O)Nc2c(Cl)cncc2Cl)cc1OC1CCCC1 [Piclamilast]	91.2%
COc1cc(/C=C/C(=O)N2CCC=CC2=O)cc(OC)c1OC [Piperlongumine]	104%
O=C(NNc1ccccc1)c1ccncc1 [PluriSln 1]	92.1%
CC(C)c1nc(CN(C)C(=O)N[C@H](C(=O)N[C@@H](Cc2ccccc2)C[C@H](O)[C@H](Cc2ccccc2)NC(=O)OCc2cncs2)C(C)C)cs1 [Ritonavir]	102%
C=C(C)[C@H]1Cc2c(ccc3c2O[C@@H]2COc4cc(OC)c(OC)cc4[C@@H]2C3=O)O1 [Rotenone]	51.4%
Oc1ccc(Nc2nc(-c3ccc(Cl)cc3)cs2)cc1 [SKI II]	96.1%
O=C(O)c1cc(N=Nc2ccc(S(=O)(=O)Nc3ccccn3)cc2)ccc1O [Sulfasalazine]	101%

Same assay, conditions: 1000 nM; 72 h

SMILES	cell viability
CCCCN1C[C@H](O)[C@@H](O)[C@H](O)[C@H]1CO [Miglustat]	103%
C=C(C=NNC(=N)N)NNC(=N)N [Mitoguazone]	86.6%
CCCCC/C=C\C/C=C\C/C=C\C/C=C\CCCCN1C(=O)C=CC1=O [N-Arachidonylmaleimide]	97.7%
CCCCCCCCCCC[C@@H](C[C@@H]1OC(=O)[C@H]1CCCCCC)OC(=O)[C@H](CC(C)C)NC=O [Orlistat]	93.7%
COc1ccc(C(=O)Nc2c(Cl)cncc2Cl)cc1OC1CCCC1 [Piclamilast]	110%
COc1cc(/C=C/C(=O)N2CCC=CC2=O)cc(OC)c1OC [Piperlongumine]	98.8%
O=C(NNc1ccccc1)c1ccncc1 [PluriSln 1]	106%
CC(C)c1nc(CN(C)C(=O)N[C@H](C(=O)N[C@@H](Cc2ccccc2)C[C@H](O)[C@H](Cc2ccccc2)NC(=O)OCc2cncs2)C(C)C)cs1 [Ritonavir]	100%
C=C(C)[C@H]1Cc2c(ccc3c2O[C@@H]2COc4cc(OC)c(OC)cc4[C@@H]2C3=O)O1 [Rotenone]	18.3%
Oc1ccc(Nc2nc(-c3ccc(Cl)cc3)cs2)cc1 [SKI II]	96.4%
O=C(O)c1cc(N=Nc2ccc(S(=O)(=O)Nc3ccccn3)cc2)ccc1O [Sulfasalazine]	106%

Same assay, conditions: 10000 nM; 72 h

SMILES	cell viability
CCCCN1C[C@H](O)[C@@H](O)[C@H](O)[C@H]1CO [Miglustat]	92.8%
C=C(C=NNC(=N)N)NNC(=N)N [Mitoguazone]	24.4%
CCCCC/C=C\C/C=C\C/C=C\C/C=C\CCCCN1C(=O)C=CC1=O [N-Arachidonylmaleimide]	96%
CCCCCCCCCCC[C@@H](C[C@@H]1OC(=O)[C@H]1CCCCCC)OC(=O)[C@H](CC(C)C)NC=O [Orlistat]	94.4%
COc1ccc(C(=O)Nc2c(Cl)cncc2Cl)cc1OC1CCCC1 [Piclamilast]	103%
COc1cc(/C=C/C(=O)N2CCC=CC2=O)cc(OC)c1OC [Piperlongumine]	2.16%
O=C(NNc1ccccc1)c1ccncc1 [PluriSln 1]	39.9%
CC(C)c1nc(CN(C)C(=O)N[C@H](C(=O)N[C@@H](Cc2ccccc2)C[C@H](O)[C@H](Cc2ccccc2)NC(=O)OCc2cncs2)C(C)C)cs1 [Ritonavir]	88.6%
C=C(C)[C@H]1Cc2c(ccc3c2O[C@@H]2COc4cc(OC)c(OC)cc4[C@@H]2C3=O)O1 [Rotenone]	14.6%
Oc1ccc(Nc2nc(-c3ccc(Cl)cc3)cs2)cc1 [SKI II]	34.2%
O=C(O)c1cc(N=Nc2ccc(S(=O)(=O)Nc3ccccn3)cc2)ccc1O [Sulfasalazine]	105%

These compounds were tested on ML-2 in the same assay as above. Details: 1 nM; 72 h.
Procedure, shortened: as §1

SMILES	cell viability
CCCCN1C[C@H](O)[C@@H](O)[C@H](O)[C@H]1CO [Miglustat]	95.4%
C=C(C=NNC(=N)N)NNC(=N)N [Mitoguazone]	97.7%
CCCCC/C=C\C/C=C\C/C=C\C/C=C\CCCCN1C(=O)C=CC1=O [N-Arachidonylmaleimide]	95.9%
CCCCCCCCCCC[C@@H](C[C@@H]1OC(=O)[C@H]1CCCCCC)OC(=O)[C@H](CC(C)C)NC=O [Orlistat]	93.6%
COc1ccc(C(=O)Nc2c(Cl)cncc2Cl)cc1OC1CCCC1 [Piclamilast]	84.4%
COc1cc(/C=C/C(=O)N2CCC=CC2=O)cc(OC)c1OC [Piperlongumine]	102%
